Patent US8288393B2, “Nitrogen-containing heterocyclic compound and pest control agent” (Nippon Soda Co., Ltd., priority 2007, dated 2012)

How the values were obtained:
[1] = system: Culex pipiens molestus; assay: Efficacy against Culex pipiens molestus (larvae in water); conditions: in vivo
Description: 0.225 ml of distilled water containing 10 Culex pipiens molestus larvae 1 day after hatching and aquarium fish food (TetraMin, Tetra Japan) were placed in a 0.3 ml polystyrene test container.
The compounds were prepared as 1% solutions using DMSO (containing 0.5% Tween 20), and further diluted to 0.01% with distilled water. 0.025 ml of the diluted chemical liquid were added to the test container containing the Culex pipiens molestus larvae followed by stirring (final compound concentration: 0.001%).
Insect mortality rates were invested 2 days after allowing to stand at 25° C. The test was repeated twice.

[2] = system: Aphis gossypii; assay: Efficacy against Aphis gossypii (spray on infested cucumber plants); assay type: in vivo; conditions: 125 ppm emulsion sprayed on cucumber plants infested with nymphs, 25° C., 5 days later
Source text: Cucumber plants planted in a no. 3 pot for which 10 days had elapsed since germination were inoculated with adult Aphis gossypii. The adult insects were removed after 1 day, and a chemical liquid diluted with water to a compound concentration of 125 ppm was sprayed onto the cucumber plants infested with nymphs laid by the adults in accordance with the emulsion formula indicated in the aforementioned Preparation Example 2. The cucumber plants were placed in a constant temperature chamber at a temperature of 25° C. and humidity of 65% and insect viability was investigated 5 days later followed by determination of insect mortality rate. The test was repeated twice.

[3] = system: Spodoptera litura; assay: Efficacy against Spodoptera litura (cabbage leaf dip); assay type: in vivo; conditions: 125 ppm emulsion, cabbage leaves immersed, 2nd instar larvae, 25° C., 5 days later
Description: (§1) The emulsion indicated in the aforementioned Preparation Example 2 was diluted with water to a compound concentration of 125 ppm in accordance with the formula thereof. After immersing cabbage leaves in the chemical liquid for 30 seconds and allowing to air dry, the cabbage leaves were placed in a Petri dish lined with filter paper and inoculated with five 2nd instar Spodoptera litura larvae. A glass cover was placed over the Petri dish, the dish was placed in a constant temperature chamber at a temperature of 25° C. and humidity of 65%, and viability was investigated 5 days later followed by determination of insect mortality rate. The test was repeated twice.

[4] = system: Tetranychus urticae resistant to organic phosphorous agents; assay: Efficacy against Tetranychus urticae (spray on kidney bean plants); assay type: in vivo; conditions: 125 ppm wettable powder sprayed on kidney bean plants, female adults, 25° C., 3 days later
Source text: After inoculating the first true leaves of kidney bean plants planted in a no. 3 pot for which 7 to 10 days had elapsed since germination with female adult Tetranychus urticae resistant to organic phosphorous agents, a chemical liquid diluted with water to a compound concentration of 125 ppm was sprayed onto the kidney bean plants in accordance with the formula of the wettable powder indicated in the aforementioned Preparation Example 1. The kidney bean plants were placed in a constant temperature chamber at a temperature of 25° C. and humidity of 65% and insect mortality rate was investigated 3 days later. The test was repeated twice.

[5] = system: Pseudaletia separata; assay: Efficacy against Pseudaletia separata (corn leaf dip); assay type: in vivo; conditions: 125 ppm wettable powder, corn leaves immersed, 2nd instar larvae, 25° C., 5 days later
Description: as §1, with “The wettable powder” for “The emulsion”, “Example 1” for “Example 2”, “immersing corn” for “immersing cabbage”, “the corn” for “the cabbage”, “instar Pseudaletia separata” for “instar Spodoptera litura”

Q: “N-{[5-(3,5-dichlorophenyl)-5-trifluoromethyl-4,5-dihydroisoxazol-3-yl]indan-1-yl}-propionic acid amide [1-6]” was tested. Which insect mortality rate [1] did it give?
A: The insect mortality rate was at least 90%.

Q: How did the insect mortality rate [2] turn out when `Cc1nc(N(C)C)nc(OC(=O)N(C)C)c1C` [pirimicarb] was run?
A: The insect mortality rate was 9%.

Q: What does the source list for `Cc1cc(Cl)ccc1N=CN(C)C` [chlordimeform]?
A: insect mortality rate [3]: 40%; insect mortality rate [4]: 40%; insect mortality rate [5]: 40%
